Measured values as given in patent US5140009A (Tap Pharmaceuticals, Inc., priority 1990, dated 1992).
Numbered stars: 1 amine (or outer) side, 2 acyl side, 3 side chain; on linkers, the order of the positions; unused ones are H or OH. Square brackets hold non-standard residues; d marks the D form. Peptide text beside a SMILES is read from it. * marks the point of attachment. Phe(4-Cl) = N[C@@H](Cc1ccc(Cl)cc1)C(=O)O; 1Nal = N[C@@H](Cc1cccc2ccccc12)C(=O)O; d2Nal = N[C@H](Cc1ccc2ccccc2c1)C(=O)O; NMeY = CN[C@@H](Cc1ccc(O)cc1)C(=O)O; Nicotinoyl = O=C(c1cccnc1)*; NMeS = CN[C@@H](CO)C(=O)O; Morpholide = C1CN(*)CCO1; CO = O=C([*:1])[*:2]

biological target: T1, LHRH receptors (Rattus norvegicus, UniProt P30969); experiment: Receptor Binding (radioligand receptor binding assay); conditions: table 3; rat pituitary membranes, radioiodinated [D-Leu^6 -des Gly^10 ]-LHRH ethyl amide 50 pM, 2 hours at 4° C.; read-out: Receptor Binding pkI (converted)
T1 construct: Pituitary membranes containing LHRH receptors are prepared in batches from quick-frozen rat pituitaries; tissue Hilltop Labs; host or cells: rat pituitary membranes
T1 sequence (P30969 1-327): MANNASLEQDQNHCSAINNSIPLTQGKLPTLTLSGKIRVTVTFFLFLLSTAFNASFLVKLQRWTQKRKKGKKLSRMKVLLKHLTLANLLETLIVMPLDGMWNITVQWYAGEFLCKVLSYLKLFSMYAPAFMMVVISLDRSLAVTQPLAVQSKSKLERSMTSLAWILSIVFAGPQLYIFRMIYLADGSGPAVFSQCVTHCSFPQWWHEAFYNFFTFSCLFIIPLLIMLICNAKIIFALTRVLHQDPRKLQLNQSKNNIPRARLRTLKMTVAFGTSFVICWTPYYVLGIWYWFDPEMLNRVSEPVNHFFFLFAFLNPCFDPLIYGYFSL

Structure (SMILES)	Ki [nM]
CCNC(=O)[C@@H]1CCCN1C(=O)[C@H](CCCNC(=N)N)NC(=O)[C@H](CC(C)C)NC(=O)[C@@H](Cc1c[nH]c2ccccc12)NC(=O)[C@H](Cc1ccc(O)cc1)NC(=O)[C@H](CO)NC(=O)[C@H](Cc1c[nH]c2ccccc12)NC(=O)[C@@H](Cc1ccc2ccccc2c1)NC(=O)N1CCOCC1 [Compound 111, (2-9)[N-(N-alpha-Morpholinocarbonyl)-D-2-Nal^2 -D-Trp^6 -Pro^9 NHEt]LHRH] ({Morpholide-CO}-[d2Nal]WSY[dW]LRP-NHEt)	2.75
CCNC(=O)[C@@H]1CCCN1C(=O)[C@H](CCCNC(=N)N)NC(=O)[C@H](CC(C)C)NC(=O)[C@@H](Cc1c[nH]c2ccccc12)NC(=O)[C@H](Cc1ccc(O)cc1)NC(=O)[C@H](CO)NC(=O)[C@H](Cc1c[nH]c2ccccc12)NC(=O)[C@H](Cc1ccc(Cl)cc1)NC(=O)N1CCOCC1 [Compound 112, (2-9)[N-(N-alpha-Morpholinocarbonyl)-4-Cl -Phe^2 -D-Trp^6 -Pro^9 NHEt]LHRH] ({Morpholide-CO}-[Phe(4-Cl)]WSY[dW]LRP-NHEt)	0.316
CCNC(=O)[C@@H]1CCCN1C(=O)[C@H](CCCNC(=N)N)NC(=O)[C@H](CC(C)C)NC(=O)[C@@H](Cc1c[nH]c2ccccc12)NC(=O)[C@H](Cc1ccc(O)cc1)N(C)C(=O)[C@H](CO)NC(=O)[C@H](Cc1c[nH]c2ccccc12)NC(=O)[C@H](Cc1ccccc1)NC(=O)N1CCOCC1 [Compound 114, (2-9)[N-(N-alpha-Morpholinocarbonyl)-Phe^2 -N-Me-Tyr^5 -D-Trp^6-Pro^9 -NHEt]LHRH] ({Morpholide-CO}-FWS[NMeY][dW]LRP-NHEt)	0.00575
CCNC(=O)[C@@H]1CCCN1C(=O)[C@H](CCCNC(=N)N)NC(=O)[C@H](CC(C)C)NC(=O)[C@@H](Cc1c[nH]c2ccccc12)NC(=O)[C@H](Cc1ccc(O)cc1)NC(=O)[C@H](CO)NC(=O)[C@H](Cc1ccc(O)cc1)N(C)C(=O)[C@H](Cc1ccccc1)NC(=O)N1CCOCC1 [Compound 116, (2-9)[N-(N-alpha-Morpholinocarbonyl)-Phe^2 -N-Me-Tyr^3 -D-Trp^6-Pro^9 NHEt]LHRH] ({Morpholide-CO}-F[NMeY]SY[dW]LRP-NHEt)	5.01

Further lines, results first:

Ki [nM]	Structure (SMILES)
0.1	CCNC(=O)[C@@H]1CCCN1C(=O)[C@H](CCCNC(=N)N)NC(=O)[C@H](CC(C)C)NC(=O)[C@@H](Cc1c[nH]c2ccccc12)NC(=O)[C@H](Cc1ccc(O)cc1)NC(=O)[C@H](CO)NC(=O)[C@H](Cc1c[nH]c2ccccc12)NC(=O)[C@H](Cc1cccc2ccccc12)NC(=O)N1CCOCC1 [Compound 110, (2-9)[N-(N-alpha-Morpholinocarbonyl)-1-Nal^2 -D-Trp^6 -Pro^9 NHEt]LHRH] ({Morpholide-CO}-[1Nal]WSY[dW]LRP-NHEt)
2.24	CCNC(=O)[C@@H]1CCCN1C(=O)[C@H](CCCNC(=N)N)NC(=O)[C@H](CC(C)C)NC(=O)[C@@H](Cc1c[nH]c2ccccc12)NC(=O)[C@H](Cc1ccc(O)cc1)NC(=O)[C@H](CO)N(C)C(=O)[C@H](Cc1c[nH]c2ccccc12)NC(=O)[C@H](Cc1ccccc1)NC(=O)N1CCOCC1 [Compound 115, (2-9)[N-(N-alpha-Morpholinocarbonyl)-Phe^2 -N-Me-Ser^4 -D-Trp^6-Pro^9 -NHEt]LHRH] ({Morpholide-CO}-FW[NMeS]Y[dW]LRP-NHEt)
1.86	CCNC(=O)[C@@H]1CCCN1C(=O)[C@H](CCCNC(=N)N)NC(=O)[C@H](CC(C)C)NC(=O)[C@@H](CCCCNC(=O)c1cccnc1)NC(=O)[C@H](Cc1ccc(O)cc1)NC(=O)[C@H](CO)NC(=O)[C@H](Cc1c[nH]c2ccccc12)NC(=O)[C@H](Cc1ccccc1)NC(=O)N1CCOCC1 [Compound 117, N-(N-alpha-Morpholinocarbonyl)-Phe-Trp-Ser-Tyr-D-Lys(Nic) -Leu-Arg-ProNHEt] ({Morpholide-CO}-FWSY[dK](Nicotinoyl)LRP-NHEt)
